Structures are written as SMILES.

The target of one experiment is T1, cathepsin B (Homo sapiens, UniProt P07858).
T1 construct: purchased Calbiochem (San Diego, Calif.)
Nature of the experiment: Cathepsin B inhibition, fluorometric assay with Cbz-Phe-Arg-NHMec. The note with it: human enzyme; IC50 at substrate << Km taken as Ki; pH 6. It counts as biochemical. The source says:
(§1) The enzyme cathepsin B (E.C. 3.4.22.01) was obtained from Calbiochem (San Diego, Calif.); cathepsin L (E.C. 3.4.22.15) from Athens Research and Technology Inc. (Athens,Ga.); and papain (E.C. 3.4.22.02) from Sigma (St. Louis, Mo.).
(§2) Cbz-Phe-Arg-NHMec (--NHMec: 7-(4-methyl)coumarylamide) was obtained from BachemCalifornia, Inc. (Torrance, Calif.). All other reagents were obtained from Sigma.
(§3) The enzymes used in enzyme assays with methylcoumarylamides were activated as described elsewhere (Barret, et al., Methods Enzymol. 80:535-561 (1981); Bromme, et al., Biochem. J, 264: 475-481 (1989). Cathepsin L was assayed in 0.34 M sodium acetate buffer, pH 5.5, containing 0.1% (v/v) Brij 35, 2.5 mM dithiothreitol (DTT) and 5 mM Na2 -EDTA. Cathepsin B was assayed under the same conditions, except that the buffer was adjusted to pH 6. Papain was assayed in 50 mM sodium phosphate buffer, pH 6.8, containing 0.2 M sodium chloride, 2 mM DTT, 1 mM Na2 -EDTA and 0.025% Brij 35 (v/v).
(§4) Initial velocities of enzymatic reactions were measured spectrofluorometrically (λex =370 nm, λem 460 nm) with a Quanta Master QM1 (Photon Technologies International, South Brunswick, N.J.). Stock solutions of the enzymes were diluted into the buffer, equilibrated at room temperature, and preincubated without or with increasing concentrations of inhibitors. The reactions were started by addition of substrate. A total of 4 to 8 inhibitor concentrations were used to determine IC50 values. In all cases the substrate concentrations were much smaller than the Km value, and the IC50 values measured approximated the Ki directly (Cheng, et al., Biochemical Pharmacology, 22:3099-3108 (1973)).

The next experiment concerns gingipain R (RGP). Description: Gingipain assay, BAPNA cleavage at 405 nm. Conditions: 2 mM BAPNA, cell marked (IC50) in the Ki [nM] table. It is filed as biochemical, human. As for the experimental part: All assays were carried out in a 96 well microtiter plate reader and cleavage of BAPNA (Nα-benzoyl-DL-arginine-p-nitroanilide hydrochloride) was detected at 405 nm.
All assays were performed as follows: 180 μl assay buffer (50 mM Tris, […], at pH 7.6) was mixed with 10 μl gingipain R (RGP). The mixture was incubated for 5 min. at room temperature to reduce and activate RGP. 10 μl of each inhibitor were added at various concentrations. These mixtures were incubated for 10 min. at room temperature to allow the inhibitors to complex with RGP. 50 μl of 10 mM BAPNA substrate was added. A two minute assay was performed with a final volume of 250 μl, and a final BAPNA concentration of 2 mM.
For this reason, two minute assays were performed whereby the Vmax in mOD/min change in absorbance at 405 nm was used as the initial velocity reading. In order to titrate RGP against leupeptin and to determine % activity, these velocity readings were transformed on a percent scale where the 100% control contained no inhibitor. The initial velocity values were also entered into Graphpad Prism regression program along with the various inhibitor concentrations to obtain the IC50 values. All data represents the minimum of duplicates, and at times triplicate sets.

Another experiment concerns the target T2, cathepsin L (Homo sapiens, UniProt P07711).
T2 construct: purchased Athens Research and Technology Inc. (Athens,Ga.)
Description: Cathepsin L inhibition, fluorometric assay with Cbz-Phe-Arg-NHMec. Conditions: human enzyme; IC50 at substrate << Km taken as Ki; pH 5.5. It is filed as biochemical.
Text: as §1, §2, §3, §4

The target in a further experiment is T3, papain (Carica papaya, UniProt P00784).
T3 construct: purchased Sigma (St. Louis, Mo.)
T3 sequence (P00784 134-345): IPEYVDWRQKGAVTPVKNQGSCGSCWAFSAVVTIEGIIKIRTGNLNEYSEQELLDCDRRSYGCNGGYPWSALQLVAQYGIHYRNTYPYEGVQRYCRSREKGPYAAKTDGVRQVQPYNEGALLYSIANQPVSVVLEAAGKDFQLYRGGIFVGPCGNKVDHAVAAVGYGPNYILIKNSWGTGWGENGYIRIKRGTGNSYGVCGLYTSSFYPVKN
Description: Papain inhibition, fluorometric assay with Cbz-Phe-Arg-NHMec. It is filed as biochemical. Conditions: IC50 at substrate << Km taken as Ki; pH 6.8.
Text: as §1, §2, §3, §4

The next experiment addresses T4, ICE (Caspase 1) (Homo sapiens, UniProt P29466).
T4 construct: endogenous in cells; host or cells: THP-1
T4 sequence (P29466 120-297 limits assumed): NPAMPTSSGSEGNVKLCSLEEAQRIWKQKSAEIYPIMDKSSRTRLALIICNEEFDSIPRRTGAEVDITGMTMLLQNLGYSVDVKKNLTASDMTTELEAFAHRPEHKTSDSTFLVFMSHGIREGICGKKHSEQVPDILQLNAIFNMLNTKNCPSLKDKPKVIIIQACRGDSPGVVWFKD
T4 sequence (P29466 317-404 limits assumed): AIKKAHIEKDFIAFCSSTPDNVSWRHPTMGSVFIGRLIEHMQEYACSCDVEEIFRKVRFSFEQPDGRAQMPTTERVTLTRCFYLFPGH
Nature of the experiment: THP-1 assay: IL-1β release after LPS stimulation (assay for ICE inhibition). It counts as cell-based. The source says: To examine the ability of the caspase family inhibitors, CQ-0010 and CQ-0011, to inhibit human IL-1β production, two different assays were employed. In the first, the human monocytic cell line, THP-1, was stimulated with E. coli lipopolysaccharide (LPS serotype 0127-88; Sigma Chemical Co., St. Louis, Mo.) in the presence and absence of the inhibitors. This cell line synthesizes and secretes IL-1β and TNFα as well as other cytokines upon LPS stimulation. The second assay used freshly-isolated human whole blood similarly stimulated with LPS.
Two×10^6 THP-1 cells were added to 24 well plates in 1 ml RPMI supplemented with 1% FCS, glutamine and 5×10^-5 M mercaptoethanol. Two-fold serial dilutions of the inhibitors, CQ-0010, CQ-0011 and the commmercially available Ac-YVAD-CHO (Biomol Research Laboratories Inc., Plymouth Meeting, Pa.), were preincubated with the cells for 15 min at 37° C. LPS was then added to a final concentration of 1 ug/ml and the plates incubated for 4 hr at 37° C. All incubations were carried out in a humidified incubator with 5% CO2 in air.
Supernatants were harvested after 4 hr and assayed by ELISA for the presence of TNFα and IL-1β using commercially available kits (PerSeptive Biosystems, Framingham, Mass. and R&D Systems, Minneapolis, Minn., respectively).

In another experiment the target is granzyme B (Homo sapiens, UniProt P10144). Nature of the experiment: Granzyme B inhibition, photometric, Succ-AAPD-pNA. It counts as biochemical. The note with it: 20 μM Succ-AAPD-pNA, 1 mM DTT. Here is the method: (§5) Inhibition constants were measured photometrically for YAMA (caspase 3), Lap3 (caspase 7), FLICE (caspase 8), Mch2 (caspase 6) and granzyme B. The buffer used for all enzymes consisted of 50 mM Hepes, 100 mM sodium chloride, 10% (v/v) sucrose, 0.1% (v/v) CHAPS and 10 mM dithiothreitol (DTT). In the case of granzyme B, only 1 mM DTT was used.
Chain of granzyme B (P10144 21-247, species assumed): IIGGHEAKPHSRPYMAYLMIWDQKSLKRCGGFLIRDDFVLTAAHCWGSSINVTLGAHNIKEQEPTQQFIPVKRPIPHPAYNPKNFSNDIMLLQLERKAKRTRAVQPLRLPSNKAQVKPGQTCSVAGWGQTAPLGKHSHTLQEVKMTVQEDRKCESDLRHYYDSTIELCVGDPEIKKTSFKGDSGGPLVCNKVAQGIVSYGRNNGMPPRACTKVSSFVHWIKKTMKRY
(§6) Enzymes were incubated at 37° C. for 10 minutes in 100 μL well plates and synthetic substrate and inhibitor were added simultaneously. Final substrate concentration was 20 μM in all cases. The synthetic substrate Ac-DEVD-pNA was used for all caspases and Succ-AAPD-pNA was used for granzyme B. The appearance of product was monitored over 10 minutes at 410 nm using a Spectromax 340 and IC50 curves were calculated from the initial slopes at varying inhibitor concentrations and inhibition constants were calculated.

The target in another experiment is FLICE (Mch5, Caspase 8) (Homo sapiens, UniProt Q14790). Nature of the experiment: Caspase inhibition, photometric, Ac-DEVD-pNA. It is filed as biochemical. The note with it: 20 μM Ac-DEVD-pNA, 37° C.; read-out: Ki, FLICE (Mch5, Caspase 8). As for the experimental part:
as §5, §6

The next experiment has as its target T5, YAMA (CPP32, Caspase 3) (Homo sapiens, UniProt P42574).
T5 sequence (P42574 29-175 limits assumed): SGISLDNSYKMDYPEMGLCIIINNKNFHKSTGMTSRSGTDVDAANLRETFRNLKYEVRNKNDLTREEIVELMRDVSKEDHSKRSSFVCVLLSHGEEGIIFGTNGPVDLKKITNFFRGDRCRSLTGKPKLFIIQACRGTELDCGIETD
T5 sequence (P42574 176-277 limits assumed): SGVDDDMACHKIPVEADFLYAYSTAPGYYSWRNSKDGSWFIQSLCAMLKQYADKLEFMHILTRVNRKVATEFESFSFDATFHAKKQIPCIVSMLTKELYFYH
Nature of the experiment: Caspase inhibition, photometric, Ac-DEVD-pNA. It is filed as biochemical. The note with it: 20 μM Ac-DEVD-pNA, 37° C. As for the experimental part:
as §5, §6

A further experiment concerns the target T6, Lap3 (Mch3, Caspase 7) (Homo sapiens, UniProt P55210).
T6 sequence (P55210 24-198 limits assumed): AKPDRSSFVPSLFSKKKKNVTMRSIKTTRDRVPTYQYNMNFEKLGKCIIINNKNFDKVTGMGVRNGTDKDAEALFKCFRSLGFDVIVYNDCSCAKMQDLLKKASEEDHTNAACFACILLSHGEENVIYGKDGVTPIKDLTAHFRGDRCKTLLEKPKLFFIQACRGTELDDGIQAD
T6 sequence (P55210 207-303 limits assumed): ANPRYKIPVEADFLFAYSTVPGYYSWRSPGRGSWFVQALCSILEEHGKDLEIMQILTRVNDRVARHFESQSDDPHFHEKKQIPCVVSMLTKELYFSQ
Description: Caspase inhibition, photometric, Ac-DEVD-pNA. It is filed as biochemical. Conditions: 20 μM Ac-DEVD-pNA, 37° C. Here is the method: as §5, §6

The target of a further experiment is T7, Mch2 (Caspase 6) (Homo sapiens, UniProt P55212).
T7 sequence (P55212 24-179 limits assumed): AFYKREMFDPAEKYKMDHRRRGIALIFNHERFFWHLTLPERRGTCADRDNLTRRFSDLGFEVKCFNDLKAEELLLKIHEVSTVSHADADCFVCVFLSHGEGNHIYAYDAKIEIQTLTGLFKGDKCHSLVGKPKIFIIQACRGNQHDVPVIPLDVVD
T7 sequence (P55212 194-293 limits assumed): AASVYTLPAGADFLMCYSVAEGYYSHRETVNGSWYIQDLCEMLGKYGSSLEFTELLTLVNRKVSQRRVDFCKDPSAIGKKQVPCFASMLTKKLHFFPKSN
Description: Caspase inhibition, photometric, Ac-DEVD-pNA. It counts as biochemical. The note with it: 20 μM Ac-DEVD-pNA, 37° C. Here is the method: as §5, §6

T2 sequence (P07711 114-333): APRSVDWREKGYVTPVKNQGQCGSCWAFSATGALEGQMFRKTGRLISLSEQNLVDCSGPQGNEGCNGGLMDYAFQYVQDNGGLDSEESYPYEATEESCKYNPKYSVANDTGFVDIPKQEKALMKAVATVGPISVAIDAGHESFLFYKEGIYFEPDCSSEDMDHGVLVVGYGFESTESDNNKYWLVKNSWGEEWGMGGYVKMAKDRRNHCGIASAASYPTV
Chain of FLICE (Mch5, Caspase 8) (Q14790 217-374 limits assumed, species assumed): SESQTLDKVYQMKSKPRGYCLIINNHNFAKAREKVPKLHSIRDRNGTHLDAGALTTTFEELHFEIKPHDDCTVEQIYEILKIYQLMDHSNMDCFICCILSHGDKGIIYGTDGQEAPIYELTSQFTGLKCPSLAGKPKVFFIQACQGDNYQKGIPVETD
Chain of FLICE (Mch5, Caspase 8) (Q14790 385-479 limits assumed, species assumed): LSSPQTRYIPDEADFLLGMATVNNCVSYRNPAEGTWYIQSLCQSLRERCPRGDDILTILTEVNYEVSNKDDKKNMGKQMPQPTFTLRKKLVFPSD

As usually defined, the Ki is the dissociation constant of the complex between target and ligand, obtained from inhibition or displacement. By IC50 is commonly meant the concentration that inhibits the measured activity by half. Take `CC(=O)N[C@@H](CC(C)C)C(=O)N[C@@H](CC(C)C)C(=O)NC(CCCN=C(N)N)C(=O)c1nnc(-c2ccccc2)o1` (some centres unmarked) [CQ-0002]: the results for the Ki on cathepsin B, on cathepsin L and on papain were 0.324 ± 0.046 µM, 0.006 ± 0.00098 µM and 1.2 µM, respectively. This compound displayed a half-maximal inhibitory concentration (IC50) with gingipain R (RGP) of 28 nM.

On to `CC(=O)N[C@@H](CC(=O)O)C(=O)N[C@H](C(=O)N[C@@H](CCC(=O)O)C(=O)NC(CC(=O)O)C(=O)c1nnc(-c2ccccc2)o1)C(C)C` (stereo partly drawn) [CQ-0011, Acetyl-L-Aspartyl-Valyl-N-[1-[2-[(5-phenyl)-1,3,4-oxadiazolyl]carbonyl]-2-(carboxy)-ethyl]-L-glutamyl amide], for which the IC50 at ICE (Caspase 1) (LPS 1 ug/ml, 4 hr, ELISA, read-out: IC50 of reduction of IL1β release from THP1 cell line) was found to be 3 µM. On ICE (Caspase 1) (THP-1 cells (FIG. 1; Table 4)), the “potency in inhibiting IL1β production relative to CQ-0010 (fold less)” value is “approximately 10 fold”. Besides, the “Ki, Granzyme” value at granzyme B is on record as “Not Active”. The Ki at FLICE (Mch5, Caspase 8) is not above 0.03 µM; at YAMA (CPP32, Caspase 3), not above 0.1 µM; at Lap3 (Mch3, Caspase 7), not above 0.03 µM; on Mch2 (Caspase 6), 6.7 µM.
